Reference: patent publication US4800197A, “Anti-acne composition” (Richardson-Vicks Inc., priority 1987, dated 1989)

Key:
corneocytes = details: C. Huber et al, Arch. Derm. Res. 257, 293-297, 1977; cited from earlier work
[1] = in vitro human skin
Source text: Excised human skin samples are obtained at autopsy and maintained under sterile conditions until used. […] The diffusion cell is composed of two compartments: the lower chamber is made of Plexiglass and the top is made of Teflon. The skin sample is mounted with the stratum corneum side exposed to the air and held on to the Teflon top with a rubber 0-ring; a tight seal between the two compartments is achieved by tightening the set screws. The cell has an effective diffusional area of 5.08 cm^2 and the dermis side of the skin is constantly bathed by filling the receptor compartment with 40 ml of isotonic saline. Adequate mixing of the receptor phase is accomplished with a magnet driven Teflon-coated stir bar moved by appropriate motor means located below the cell bath. The whole diffusion cell assembly is immersed in a water bath maintained at 30° C. using a circulating water bath. […] At hourly intervals over a period of seven hours, a one milliliter sample of the receptor fluid is withdrawn and analyzed for radioactive content by liquid scintillation counting means (Packard Tri-Carb model No. 460). […]
At the end of the seven hour period the skin sample is removed from the diffusion cell, trimmed of excess skin and glued with cyanoacrylate glue to a glass plate. […] Ten successive adhesive tape strippings are then taken and the salicylic acid content per strip determined. […]

Row | Compound | reduction in intercellular cohesion of the corneocytes (in words) (corneocytes) | deposition of salicylic acid in the stratum corneum (in words) [1] | rate of penetration of salicylic acid (in words) [1]
1 | O=C(O)c1ccccc1O [Salicylic acid] | causes a reduction in intercellular cohesion of the corneocytes | – | –
2 | CCCCCCCCCCCCOS(=O)(=O)[O-].[Na+] [surfactant D, sodium lauryl sulfate] | – | marked decrease in deposition of salicylic acid in the stratum corneum | marked increase in the penetration rate through the skin
